According to US11179415B1 (priority 2020, dated 2021):
Where two headings read alike, the source gives them in different places.

Experiments:
[1] = rat; in drinking water up to several months; doses as high as 1000 mg/liter (1000 ppm or 0.1%); cited from earlier work
[2] = chicken; in drinking water up to several months; doses as high as 1000 mg/liter (1000 ppm or 0.1%); cited from earlier work
[3] = mouse; in drinking water up to several months; doses as high as 1000 mg/liter (1000 ppm or 0.1%); cited from earlier work
[4] = system: SARS CoV-2; conditions: in vivo
[5] = system: human Coronavirus; conditions: BASF Aseptrol Label, EPA Registration Number 70060-19; cited from earlier work
[6] = system: common cold; experiment: inventor's self-use of CLO2 to prevent the common cold; format: in vivo, human; conditions: 5 ppm CLO2 nasal drops only, several drops per nostril 2 times per day, 3 days from prodromal period; one person
[7] = man; daily ingestion of 500 ml CLO2 at 5 ppm; cited from earlier work
[8] = system: Coronavirus SARS CoV-2; conditions: Fact Sheet, National Agricultural Biosecurity Center, Kansas State University; cited from earlier work
[9] = OSHA, cited from earlier work

For `[O-][Cl+2]([O-])O` [CLO3], the methemoglobin concentrations [1] is given as “no significant increases”, the methemoglobin concentrations [2] is given as “no significant increases” and the methemoglobin concentrations [3] is given as “no significant increases”.

For `[O][Cl+][O-]` [CLO2, chlorine dioxide], the “lung irritation after inhalation of aerosol fog” value [4] is listed as “no resulting lung irritation”, the “symptoms after contracting SARS CoV-2” value [4] is listed as “only little to slight symptoms” and the methemoglobin concentrations [1] is listed as “no significant increases”. The “efficacy against human Coronavirus” value [5] was “effective against human Coronavirus”, the “development of a common cold” value [6] was “a cold never developed” and the methemoglobin concentrations [2] was “no significant increases”. For the same molecule, the “tolerability of daily ingestion” value [7] was “safely tolerated”, the “virucidal activity against SARS CoV-2” value [8] was “kills the Coronavirus SARS CoV-2” and the methemoglobin concentrations [3] was “no significant increases”. For the same molecule, the “concentration safe for an 8-hour exposure” value ([9]; 8-hour exposure) was 0.1 ppm and the “concentration safe for short-time exposure limit (STEL)” value ([9]; STEL of 15 minutes) was 0.3 ppm.
